Like-named read-outs stand apart in the source and are kept apart here. Each block holds one molecule with its values, some of them ahead of it.
Target: T1, CFTR (Homo sapiens, UniProt P13569, DEL508-508)
T1 construct: endogenous in cells; host or cells: primary human bronchial epithelial cells from CF subjects (F508del/MF-HBE), differentiated at air-liquid interface
Assay: HBE assay: Ussing chamber assay of CFTR-mediated short-circuit currents
Format: cell-based
Details: for activation at 10 µM: read-out: HBE Activity at 10 μM (%)
In short: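 CFTR-mediated Isc (μA/cm²) equals the peak response to apical 20 μM forskolin minus the residual after a 20 μM each BPO/GlyH-101/CFTR inhibitor 172 cocktail, recorded in Ussing chambers at Vhold 0 mV, 37 °C, pH 7.4, with 30 μM apical amiloride. Cells were F508del/MF HBE cultures preincubated 18-24 h with corrector (concentration range or 10 μM) plus 1 μM ivacaftor in 20% human serum.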

[1] = Table 13, read-out: HBE Max Activity (%)
[2] = Table 11, read-out: HBE Max Activity (%)
[3] = Table 12, read-out: HBE Max Activity (%)
[4] = HBE assay, read-out: HBE Max activity (%)

T1 sequence (P13569 with tags, fused parts or gaps DEL508-508): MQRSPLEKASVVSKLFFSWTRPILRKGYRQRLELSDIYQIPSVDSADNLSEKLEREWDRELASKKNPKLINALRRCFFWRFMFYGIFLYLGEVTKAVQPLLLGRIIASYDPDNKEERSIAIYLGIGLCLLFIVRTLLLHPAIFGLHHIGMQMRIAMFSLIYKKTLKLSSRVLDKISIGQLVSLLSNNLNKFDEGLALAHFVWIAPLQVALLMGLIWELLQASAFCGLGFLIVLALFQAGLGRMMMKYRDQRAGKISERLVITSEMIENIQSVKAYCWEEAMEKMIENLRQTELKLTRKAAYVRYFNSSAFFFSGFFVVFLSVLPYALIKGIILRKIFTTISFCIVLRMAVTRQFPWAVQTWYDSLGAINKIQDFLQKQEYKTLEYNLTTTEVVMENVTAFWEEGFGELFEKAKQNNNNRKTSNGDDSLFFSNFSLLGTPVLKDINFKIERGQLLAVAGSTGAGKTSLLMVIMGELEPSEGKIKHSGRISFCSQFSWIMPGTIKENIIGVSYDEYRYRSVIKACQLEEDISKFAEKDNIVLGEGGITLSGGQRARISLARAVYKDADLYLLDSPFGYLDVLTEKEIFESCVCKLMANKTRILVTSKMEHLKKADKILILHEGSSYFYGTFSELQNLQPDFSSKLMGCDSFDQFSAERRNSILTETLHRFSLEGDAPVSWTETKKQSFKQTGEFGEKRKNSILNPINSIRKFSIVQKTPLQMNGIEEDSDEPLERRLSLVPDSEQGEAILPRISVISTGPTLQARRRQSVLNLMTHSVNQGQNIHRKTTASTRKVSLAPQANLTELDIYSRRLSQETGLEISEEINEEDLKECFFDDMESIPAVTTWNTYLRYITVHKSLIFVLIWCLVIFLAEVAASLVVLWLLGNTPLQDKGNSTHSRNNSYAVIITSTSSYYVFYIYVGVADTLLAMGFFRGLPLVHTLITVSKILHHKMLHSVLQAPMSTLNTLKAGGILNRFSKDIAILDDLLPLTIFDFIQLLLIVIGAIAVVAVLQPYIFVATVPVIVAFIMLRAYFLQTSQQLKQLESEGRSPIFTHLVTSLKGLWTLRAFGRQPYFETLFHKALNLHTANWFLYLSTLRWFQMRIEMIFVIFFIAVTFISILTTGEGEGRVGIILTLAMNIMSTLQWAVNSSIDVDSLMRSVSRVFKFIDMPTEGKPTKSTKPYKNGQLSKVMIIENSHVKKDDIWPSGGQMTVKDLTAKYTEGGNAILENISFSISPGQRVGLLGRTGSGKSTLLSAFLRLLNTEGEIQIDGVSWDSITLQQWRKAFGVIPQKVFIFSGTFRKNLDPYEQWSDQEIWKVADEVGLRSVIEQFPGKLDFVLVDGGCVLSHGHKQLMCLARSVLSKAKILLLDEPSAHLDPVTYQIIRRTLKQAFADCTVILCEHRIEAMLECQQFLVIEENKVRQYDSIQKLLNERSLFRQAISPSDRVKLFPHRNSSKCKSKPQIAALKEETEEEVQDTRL

SMILES: Cc1cccc(C)c1-c1cc2nc(n1)NS(=O)(=O)c1cccc(c1)C(=O)N(C[C@H]1CC(C)(C)CCO1)[C@H](CC(C)(C)C)CO2 (single isomer, unassigned) [Compound 24]
- activation at 10 µM (Table 11): > 60%

SMILES: Cc1cccc(C)c1-c1cc2nc(n1)NS(=O)(=O)c1cccc(c1)C(=O)N(CC1CCCO1)[C@H](CC(C)(C)C)CO2 (stereo partly shown) [Compound 835]
- EC50 (Table 10, read-out: HBE EC50): < 1 µM
- Emax (Table 10, read-out: HBE Max activity (%)): > 60%

SMILES: Cc1cccc(C)c1-c1cc2nc(n1)NS(=O)(=O)c1cccc(c1)C(=O)N(Cc1ncc(N3CCCCC3)cn1)[C@H](CC(C)(C)C)CO2 [Compound 748]
- activation at 10 µM (Table 11): > 60%
- EC50 (Table 11, read-out: HBE EC50): < 1 µM
- Emax [2]: > 60%

SMILES: COC1CCN(c2cccc(CN3C(=O)c4cccc(c4)S(=O)(=O)Nc4nc(cc(-c5c(C)cccc5C)n4)OC[C@H]3CC(C)(C)C)n2)C1 (stereo partly shown) [Compound 625]
- EC50 (Table 11, read-out: HBE EC50): < 1 µM
- Emax [2]: > 60%

SMILES: Cc1cccc(O)c1-c1cc2nc(n1)NS(=O)(=O)c1cccc(c1)C(=O)N(Cc1ccc(N3CCOCC3)cn1)[C@H](CC(C)(C)C)CO2 [Compound 333]
- activation at 10 µM (Table 11): 30 to 60%

SMILES: Cc1cccc(C)c1-c1cc2nc(n1)NS(=O)(=O)c1cccc(c1)C(=O)N(Cc1cccc(N3CCC[C@@]3(C)C(=O)O)n1)[C@H](CC(C)(C)C)CO2 [Compound 278]
- activation at 10 µM (Table 12): > 600%

SMILES: Cc1cccc(C)c1-c1cc2nc(n1)NS(=O)(=O)c1cccc(c1)C(=O)N(C[C@H]1C[C@@H](NC(=O)OC(C)C)C1)[C@H](CC(C)(C)C)CO2 [Compound 1006]
- activation at 10 µM (Table 12): > 600%

SMILES: CC[C@@H](C)Oc1cnc(CN2C(=O)c3cccc(c3)S(=O)(=O)Nc3nc(cc(-c4c(C)cccc4C)n3)OC[C@H]2CC2CC2)nc1 [Compound 1447]
- EC50 (HBE assay, read-out: HBE EC50): < 1 µM
- Emax [4]: > 60%

SMILES: CCOc1cnc(CN2C(=O)c3cccc(c3)S(=O)(=O)Nc3nc(cc(-c4c(C)cccc4C)n3)OC[C@H]2CCC(C)(C)C)nc1 [Compound 1488]
- EC50 (HBE assay, read-out: HBE EC50): < 1 µM
- Emax [4]: > 60%

SMILES: Cc1cccc(C)c1-c1cc2nc(n1)NS(=O)(=O)c1cccc(c1)C(=O)N(Cc1cccc(N3CCC[C@H]3C)n1)[C@H](CC(C)(C)C)CO2 [Compound 132, (11R)-6-(2,6-Dimethylphenyl)-11-(2,2-dimethylpropyl)-12-({6-[(2R)-2-methylpyrrolidin-1-yl]pyridin-2-yl}methyl)-9-oxa-2λ^6-thia-3,5,12,19-tetraazatricyclo[12.3.1.14,8]nonadeca-1(17),4,6,8(19),14(18),15-hexaene-2,2,13-trione]
- EC50 (HBE EC50 (μM), Table 11): < 1 µM
- Emax (read-out: HBE Max activity (%)): > 60%

SMILES: Cc1cccc(C)c1-c1cc2nc(n1)NS(=O)(=O)c1cccc(c1)C(=O)N(Cc1ncc(C3CCN(C)CC3)cn1)[C@H](CC(C)(C)C)CO2 [Compound 631]
- EC50 (Table 11, read-out: HBE EC50): < 1 µM
- Emax [2]: > 60%

SMILES: Cc1cccnc1-c1cccc(CN2C(=O)c3cccc(c3)S(=O)(=O)Nc3nc(cc(-c4c(C)cccc4C)n3)OC[C@H]2CC(C)(C)C)n1 [Compound 591]
- activation at 10 µM (Table 12): > 600%

SMILES: Cc1ccc(N2CCCC2C)nc1CN1C(=O)c2cccc(c2)S(=O)(=O)Nc2nc(cc(-c3c(C)cccc3C)n2)OC[C@H]1CC(C)(C)C (stereo in doubt) [Compound 1346]
- EC50 (HBE assay, read-out: HBE EC50): < 1 µM
- Emax [4]: > 60%

SMILES: Cc1cccc(C)c1-c1cc2nc(n1)NS(=O)(=O)c1cccc(c1)C(=O)N(CC1CC3(C1)CC(NC(=O)OC(C)(C)C)C3)[C@H](CC(C)C)CO2 (stereo partly shown) [Compound 1004]
- activation at 10 µM (Table 12): > 600%

SMILES: CC[C@@H](C)[C@@H]1COc2cc(-c3c(C)cccc3C)nc(n2)NS(=O)(=O)c2cccc(c2)C(=O)N1Cc1ncc(OC(C)C)cn1 [Compound 1473]
- EC50 (HBE assay, read-out: HBE EC50): < 1 µM
- Emax [4]: > 60%

SMILES: Cc1cccc(C)c1-c1cc2nc(n1)NS(=O)(=O)c1cccc(c1)C(=O)N(Cc1ncc(N3CCC(C)(C)CC3)cn1)[C@H](CC(C)C)CO2 [Compound 605]
- EC50 (Table 11, read-out: HBE EC50): 3 to 30 µM
- Emax [2]: > 60%

SMILES: Cc1cccc(C)c1-c1cc2nc(n1)NS(=O)(=O)c1cccc(c1)C(=O)N(CC(=O)N1CCC3(CCC3)C1)[C@H](CC(C)(C)C)CO2 [Compound 165]
- activation at 10 µM (Table 13): > 600%

SMILES: Cc1cccc(C)c1-c1cc2nc(n1)NS(=O)(=O)c1cccc(c1)C(=O)N(Cc1cccc(-c3ncccn3)n1)[C@H](CC(C)(C)C)CO2 [Compound 590]
- EC50 (Table 12, read-out: HBE EC50): < 1 µM
- Emax [3]: > 60%

SMILES: Cc1cccc(C)c1-c1cc2nc(n1)NS(=O)(=O)c1cccc(c1)C(=O)N(Cc1cccc(N(C)C3CCOCC3)n1)[C@H](CC(C)(C)C)CO2 [Compound 1371]
- EC50 (HBE assay, read-out: HBE EC50): < 1 µM
- Emax [4]: > 60%

SMILES: Cc1cccc(C)c1-c1cc2nc(n1)NS(=O)(=O)c1cccc(c1)C(=O)N(Cc1ccc(C(=O)N3CCC(C)(C)C3)cn1)[C@H](CC(C)(C)C)CO2 [Compound 246]
- activation at 10 µM (Table 13): > 600%

SMILES: Cc1cccc(C)c1-c1cc2nc(n1)NS(=O)(=O)c1cccc(c1)C(=O)N(CC1CCC(N3CCOCC3)CC1)[C@H](CC(C)(C)C)CO2 (single isomer, unassigned) [Compound 153]
- EC50 (Table 10, read-out: HBE EC50): < 1 µM

SMILES: Cc1cccc(C)c1-c1cc2nc(n1)NS(=O)(=O)c1cccc(c1)C(=O)N(CC1CC3(C1)CC(N(C)C)C3)[C@H](CC(C)(C)C)CO2 (stereo partly shown) [Compound 1000]
- activation at 10 µM (Table 13): > 600%

SMILES: Cc1cccc(C)c1-c1cc2nc(n1)NS(=O)(=O)c1cccc(c1)C(=O)N(CC(=O)NCC1CCCC1)[C@H](CC(C)(C)C)CO2 [Compound 228]
- activation at 10 µM (Table 12): 30 to 60%

SMILES: Cc1cc(C2CCOCC2)ccc1CN1C(=O)c2cccc(c2)S(=O)(=O)Nc2nc(cc(-c3c(C)cccc3C)n2)OC[C@H]1CC(C)(C)C [Compound 519]
- activation at 10 µM (Table 13): > 600%

SMILES: Cc1cccc(C)c1-c1cc2nc(n1)NS(=O)(=O)c1cccc(c1)C(=O)N(CC(=O)N1CCc3ccccc3C1)[C@H](CC(C)(C)C)CO2 [Compound 207]
- activation at 10 µM (Table 13): > 600%

SMILES: Cc1cccc(C)c1-c1cc2nc(n1)NS(=O)(=O)c1cccc(c1)C(=O)N(CC1CC(C)(C)OC(C)(C)C1)[C@H](CC(C)(C)C)CO2 [Compound 30, (11R)-6-(2,6-Dimethylphenyl)-11-(2,2-dimethylpropyl)-12-[(2,2,6,6-tetramethyloxan-4-yl)methyl]-9-oxa-2λ^6-thia-3,5,12,19-tetraazatricyclo[12.3.1.14,8]nonadeca-1(18),4,6,8(19),14,16-hexaene-2,2,13-trione]
- activation at 10 µM (Table 11): > 60%

The remaining lines, values ahead:

- EC50 (Table 13, read-out: HBE EC50): < 1 µM
- Emax [1]: > 60%
SMILES: Cc1cccc(C)c1-c1cc2nc(n1)NS(=O)(=O)c1cccc(c1)C(=O)N(Cc1ccc(C3CC(C)(C)C3)cn1)[C@H](CC(C)(C)C)CO2 [Compound 159]

- EC50 (Table 11, read-out: HBE EC50): < 1 µM
- Emax [2]: > 60%
SMILES: Cc1cccc(C)c1-c1cc2nc(n1)NS(=O)(=O)c1cccc(c1)C(=O)N(Cc1cc(C3CC3)on1)[C@H](CC(C)(C)C)CO2 [Compound 1071]

- EC50 (Table 11, read-out: HBE EC50): < 1 µM
- Emax [2]: > 60%
SMILES: Cc1cccc(C)c1-c1cc2nc(n1)NS(=O)(=O)c1cccc(c1)C(=O)N(Cc1cncc(OC(C)C)n1)[C@H](CC(C)(C)C)CO2 [Compound 894]

- EC50 (Table 12, read-out: HBE EC50): < 1 µM
- Emax [3]: > 60%
SMILES: Cc1cccc(C)c1-c1cc2nc(n1)NS(=O)(=O)c1cccc(c1)C(=O)N(Cc1cccc(N3CCCC3C(C)C)n1)[C@H](CC(C)(C)C)CO2 (stereo partly shown) [Compound 547]

- EC50 (Table 11, read-out: HBE EC50): < 1 µM
- Emax [2]: > 60%
SMILES: COCCN(C)c1cncc(CN2C(=O)c3cccc(c3)S(=O)(=O)Nc3nc(cc(-c4c(C)cccc4C)n3)OC[C@H]2CC(C)(C)C)n1 [Compound 895]

- activation at 10 µM (Table 12): > 600%
SMILES: Cc1cccc(C)c1-c1cc2nc(n1)NS(=O)(=O)c1cccc(c1)C(=O)N(Cc1nccnc1C)[C@H](CC(C)(C)C)CO2 [Compound 698]

- EC50 (Table 12, read-out: HBE EC50): < 1 µM
- Emax [3]: > 60%
SMILES: Cc1cccc(C)c1-c1cc2nc(n1)NS(=O)(=O)c1cccc(c1)C(=O)N(Cc1ccc(C#CC(C)(C)CO)cn1)[C@H](CC(C)(C)C)CO2 [Compound 250]

- EC50 (Table 13, read-out: HBE EC50): < 1 µM
- Emax [1]: > 60%
SMILES: COc1ccc(F)c(CN2C(=O)c3cccc(c3)S(=O)(=O)Nc3nc(cc(-c4c(C)cccc4C)n3)OC[C@H]2CC(C)(C)C)n1 [Compound 1066]

- EC50 (HBE assay, read-out: HBE EC50): < 1 µM
- Emax [4]: > 60%
SMILES: Cc1cccc(C)c1-c1cc2nc(n1)NS(=O)(=O)c1cccc(c1)C(=O)N(Cc1nc(OCC(C)C)ccc1F)[C@H](CC(C)(C)C)CO2 [Compound 1376]

- activation at 10 µM (Table 13): > 600%
SMILES: Cc1cccc(C)c1-c1cc2nc(n1)NS(=O)(=O)c1cccc(c1)C(=O)N(CC(=O)N1CCC(OC(C)C)C1)[C@H](CC(C)(C)C)CO2 (stereo partly shown) [Compound 201]

- EC50 (Table 11, read-out: HBE EC50): 1 to 3 µM
- Emax [2]: > 60%
SMILES: Cc1cccc(C)c1-c1cc2nc(n1)NS(=O)(=O)c1cccc(c1)C(=O)N(Cc1cnc(C3CCOCC3)cn1)[C@H](CC(C)(C)C)CO2 [Compound 889]

- EC50 (Table 11, read-out: HBE EC50): 3 to 30 µM
- Emax [2]: > 60%
SMILES: Cc1cccc(C)c1-c1cc2nc(n1)NS(=O)(=O)c1cccc(c1)C(=O)N(Cc1ncc(N(C(C)C)C(C)C)cn1)[C@H](CC(C)(C)C)CO2 [Compound 629]

- EC50 (Table 11, read-out: HBE EC50): 1 to 3 µM
- Emax [2]: > 60%
SMILES: Cc1cccc(C)c1-c1cc2nc(n1)NS(=O)(=O)c1cccc(c1)C(=O)N(Cc1ncc(N(C)C(C)C)cn1)[C@H](CC(C)(C)C)CO2 [Compound 633]

- EC50 (Table 12, read-out: HBE EC50): < 1 µM
- Emax [3]: > 60%
SMILES: COC1(C)CN(c2cnc(CN3C(=O)c4cccc(c4)S(=O)(=O)Nc4nc(cc(-c5c(C)cccc5C)n4)OC[C@H]3CC(C)(C)C)nc2)C1 [Compound 585]

- EC50 (HBE assay, read-out: HBE EC50): < 1 µM
SMILES: Cc1cccc(C)c1-c1cc2nc(n1)NS(=O)(=O)c1cccc(c1)C(=O)N(Cc1cncc(N3CCCC3C(C)C)n1)[C@H](CC(C)(C)C)CO2 (stereo partly shown) [Compound 1384]

- activation at 10 µM (Table 12): > 600%
SMILES: Cc1cnc(CN2C(=O)c3cccc(c3)S(=O)(=O)Nc3nc(cc(-c4c(C)cccc4C)n3)OC[C@H]2CC(C)(C)C)nc1N(C)C(C)C [Compound 330]

— patent US20240150377A1, “MODULATORS OF CYSTIC FIBROSIS TRANSMEMBRANE CONDUCTANCE REGULATOR” (VERTEX PHARMACEUTICALS INCORPORATED, priority 2020, published 2024)
